Results: USRE39634E1, “Bisarylimidazoly fatty acid amide hydrolase inhibitors” (Bristol-Myers Squibb Company, priority 2001, dated 2007)

Molecular target: T1, human FAAH (Homo sapiens, UniProt O00519)
T1 construct: expressed in transfected cells; host or cells: H4 cells stably transfected with human FAAH (Geneticin selection); crude membrane homogenates
T1 sequence (O00519 1-579): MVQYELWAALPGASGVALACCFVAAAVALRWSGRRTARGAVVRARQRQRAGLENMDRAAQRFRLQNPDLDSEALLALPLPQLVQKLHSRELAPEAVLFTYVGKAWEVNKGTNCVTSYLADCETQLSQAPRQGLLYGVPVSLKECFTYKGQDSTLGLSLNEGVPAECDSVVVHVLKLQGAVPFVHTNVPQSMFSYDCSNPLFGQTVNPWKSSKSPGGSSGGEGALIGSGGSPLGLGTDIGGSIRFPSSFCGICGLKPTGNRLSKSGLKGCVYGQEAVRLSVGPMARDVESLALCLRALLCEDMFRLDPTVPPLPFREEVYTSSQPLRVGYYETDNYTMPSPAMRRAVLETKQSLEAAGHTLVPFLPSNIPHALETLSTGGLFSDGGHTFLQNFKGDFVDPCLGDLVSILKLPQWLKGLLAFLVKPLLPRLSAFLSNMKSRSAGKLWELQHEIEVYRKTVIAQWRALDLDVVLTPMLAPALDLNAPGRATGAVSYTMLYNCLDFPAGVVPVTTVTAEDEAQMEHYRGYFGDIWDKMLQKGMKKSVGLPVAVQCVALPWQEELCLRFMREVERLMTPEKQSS
Assay: Determination of FAAH activity (membrane homogenates of H4-FAAH cells, [3H]-anandamide hydrolysis)
Format: biochemical
Conditions: transfected human FAAH, H4-FAAH cell membranes, 10 μM anandamide, room temperature, one hour
Description: Homogenates of crude membranes were prepared from H4 cells that express transfected human FAAH (H4-FAAH cells). Briefly, cells were grown in DMEM supplemented with 10% FBS and Geneticin at a final concentration of 500 μg/ml (Gibco BRL, Rockville, Md.). Confluent cultures of H4-FAAH cells were rinsed twice with phosphate-buffered saline [138 mM NaCl, 4.1 mM KCl, 5.1 mM Na2PO4, 1.5 mM KH2PO4 (pH 7.5), 37° C.] and incubated for 5-10 min. at 4° C. in lysis buffer [1 mM sodium bicarbonate]. Cells were transferred from plates to polypropylene tubes (16×100 mm), homogenized and centrifuged at 32,000×g for 30 min. Pellets were resuspended by homogenization in lysis buffer and centrifuged at 32,000×g for 30 min. Pellets were resuspended in lysis buffer (15-20 μg protein/ml) then stored at −80° C. until needed. On the day of an experiment, membranes were diluted to 2.67 μg protein/ml in 125 mM Tris-Cl, pH 9.0
Activity of FAAH was measured using a modification of the method described by Omeir et al., 1995 (Life Sci 56:1999, 1995). Membrane homogenates (240 ng protein) were incubated at room temperature for one hour with 1.67 nM anandamide [ethanolamine 1-^3H] (American Radiolabeled Chemical Inc., St Louis, Mo.) and 10 μM anandamide (Sigma/RBI, St. Louis, Mo.) in the absence and presence of inhibitors. The reaction was stopped by the addition of 1 volume of a solution of methanol and dichloroethane (1:1). The mixture was shaken and then centrifuged at 1000×g for 15 min. to separate the aqueous and organic phases. An aliquot of the aqueous phase, containing [^3H]-ethanolamine was withdrawn and counted by scintillation spectroscopy. Data were expressed as the percentage of [^3H]-ethanolamine formed versus vehicle, after subtraction of the background radioactivity determined in the presence of 10 μM arachidonyl trifluoromethyl ketone (ATFMK), an inhibitor of FAAH. IC50 values were determined using a four-parameter logistic equation for dose-response curves.

Row | SMILES | IC50 [nM]
1 | Cc1nc(-c2ccccc2)c(-c2ccccc2)n1CCCOc1ccc(NC(=O)Oc2ccccc2F)cc1 [Example 66, {4-[3-(2-Methyl-4,5-diphenyl-imidazol-1-yl)-propoxy]-phenyl}-carbamic acid 2-fluoro-phenyl ester] | 1000 to 10000
2 | Cc1nc(-c2ccccc2)c(-c2ccccc2)n1CCCCCNC(=O)Oc1ccccc1F [Example 34, [5-(2-Methyl-4,5-diphenyl-imidazol-1-yl)-pentyl]-carbamic acid 2-fluoro-phenyl ester] | 10 to 100
3 | Cc1nc(-c2ccccc2)c(-c2ccccc2)n1CCCCCCNC(=O)OCc1ccccc1 [Example 5, [6-(2-Methyl-4,5-diphenyl-imidazol-1-yl)-hexyl]-carbamic acid benzyl ester] | 1000 to 10000
4 | CCOC(=O)NCCCCCCn1c(C)nc(-c2ccccc2)c1-c1ccccc1 [Example 45, [6-(2-Methyl-4,5-diphenyl-imidazol-1-yl)-hexyl]-carbamic acid ethyl ester] | 100 to 1000
5 | COC(=O)NCCCCCCn1c(C)nc(-c2ccccc2)c1-c1ccccc1 [Example 8, [6-(2-Methyl-4,5-diphenyl-imidazol-1-yl)-hexyl]-carbamic acid methyl ester] | 100 to 1000
6 | Cc1nc(-c2ccccc2)c(-c2ccccc2)n1CCCOc1ccc(NC(=O)Oc2c(F)cccc2F)cc1 [Example 69, {4-[3-(2-Methyl-4,5-diphenyl-imidazol-1-yl)-propoxy]-phenyl}-carbamic acid 2,6-difluoro-phenyl ester] | 1000 to 10000
7 | Cc1nc(-c2ccccc2)c(-c2ccccc2)n1CCCCCCCNC(=O)Oc1ccc(F)cc1F [Example 23, [7-(2-Methyl-4,5-diphenyl-imidazol-1-yl)-heptyl]-carbamic acid 2,4-difluoro-phenyl ester] | 10 to 100
8 | Cc1nc(-c2ccccc2)c(-c2ccccc2)n1CCCCCCCNC(=O)Oc1ccccc1F [Example 22, [7-(2-Methyl-4,5-diphenyl-imidazol-1-yl)-heptyl]-carbamic acid 2-fluoro-phenyl ester] | < 10
9 | CCOC(=O)NCCCCCn1c(C)nc(-c2ccccc2)c1-c1ccccc1 [Example 30, [5-(2-Methyl-4,5-diphenyl-imidazol-1-yl)-pentyl]-carbamic acid ethyl ester] | 100 to 1000
10 | Cc1nc(-c2ccccc2)c(-c2ccccc2)n1CCCCCCNC(=O)O/N=C/c1ccc([N+](=O)[O-])cc1 [Example 50, 4-Nitrobenzaldehyde, O-{6-(2-methyl-4,5-diphenyl-1H-imidazol-1-yl)hexylaminocarbonyl]oxime] | 10 to 100
11 | Cc1nc(-c2ccccc2)c(-c2ccccc2)n1CCCCCNC(=O)Oc1ccc(Cl)cc1 [Example 35, [5-(2-Methyl-4,5-diphenyl-imidazol-1-yl)-pentyl]-carbamic acid 4-chloro-phenyl ester] | 10 to 100
12 | Cc1nc(-c2ccccc2)c(-c2ccccc2)n1CCCCCC(NC(=O)Oc1ccccc1F)C(C)C (stereo not drawn) [Example 73, [1-Isopropyl-6-(2-methyl-4,5-diphenyl-imidazol-1-yl)-hexyl]-carbamic acid 2-fluoro-phenyl ester] | 100 to 1000
13 | Cc1nc(-c2ccccc2)c(-c2ccccc2)n1CCCCCCNC(=O)Oc1ccc(F)c(F)c1 [Example 41, [6-(2-Methyl-4,5-diphenyl-imidazol-1-yl)-hexyl]-carbamic acid 3,4-difluoro-phenyl ester] | < 10
14 | Cc1nc(-c2ccc(F)cc2)c(-c2ccc(F)cc2)n1CCCCCCNC(=O)Oc1c(F)cccc1F [Example 44, {6-[4,5-Bis-(4-fluoro-phenyl)-2-methyl-imidazol-1-yl]-hexyl}-carbamic acid 2,6-difluoro-phenyl ester] | 10 to 100
15 | Cc1nc(-c2ccccc2)c(-c2ccccc2)n1CCCCCCNC(=O)O/N=C/c1cccnc1 [Example 51, 3-Pyridinecarboxaldehyde, O-[6-(2-methyl-4,5-diphenyl-1H-imidazol-1-yl)hexylaminocarbonyl]oxime] | 10 to 100
16 | Cc1nc(-c2ccccc2)c(-c2ccccc2)n1CCCCCNC(=O)Oc1ccc(C#N)cc1 [Example 38, [5-(2-Methyl-4,5-diphenyl-imidazol-1-yl)-pentyl]-carbamic acid 4-cyano-phenyl ester] | 10 to 100
17 | Cc1nc(-c2ccccc2)c(-c2ccccc2)n1CCCCCCNC(=O)Oc1ccc(F)cc1F [Example 11, [6-(2-Methyl-4,5-diphenyl-imidazol-1-yl)-hexyl]-carbamic acid 2,4-difluoro-phenyl ester] | < 10
18 | COc1ccc(OC(=O)NCCCCCn2c(C)nc(-c3ccccc3)c2-c2ccccc2)cc1 [Example 36, [5-(2-Methyl-4,5-diphenyl-imidazol-1-yl)-pentyl]-carbamic acid 4-methoxy-phenyl ester] | 10 to 100
19 | Cc1nc(-c2ccccc2)c(-c2ccccc2)n1CCCOc1ccc(NC(=O)Oc2cccc(Cl)c2)cc1 [Example 59, {4-[3-(2-Methyl-4,5-diphenyl-imidazol-1-yl)-propoxy]-phenyl}-carbamic acid 3-chloro-phenyl ester] | 100 to 1000
20 | Cc1nc(-c2ccccc2)c(-c2ccccc2)n1CCOc1ccc(NC(=O)Oc2ccccc2)cc1 [Example 60, {4-[2-(2-Methyl-4,5-diphenyl-imidazol-1-yl)-ethoxy]-phenyl}-carbamic acid phenyl ester] | 1000 to 10000
21 | Cc1nc(-c2ccccc2)c(-c2ccccc2)n1CCCCCC(NC(=O)Oc1ccccc1F)c1ccccc1 (stereo not drawn) [Example 74, [6-(2-Methyl-4,5-diphenyl-imidazol-1-yl)-1-phenyl-hexyl]-carbamic acid 2-fluoro-phenyl ester] | 100 to 1000
22 | COc1cccc(OC)c1OC(=O)NCCCCCCCn1c(C)nc(-c2ccccc2)c1-c1ccccc1 [Example 28, [7-(2-Methyl-4,5-diphenyl-imidazol-1-yl)-heptyl]-carbamic acid 2,6-dimethoxy-phenyl ester] | 100 to 1000
23 | COc1ccc(OC(=O)Nc2ccc(OCCn3c(C)nc(-c4ccccc4)c3-c3ccccc3)cc2)cc1 [Example 64, {4-[2-(2-Methyl-4,5-diphenyl-imidazol-1-yl)-ethoxy]-phenyl}-carbamic acid 4-methoxy-phenyl ester] | 1000 to 10000
24 | Cc1ccccc1OC(=O)NCCCCCn1c(C)nc(-c2ccccc2)c1-c1ccccc1 [Example 37, [5-(2-Methyl-4,5-diphenyl-imidazol-1-yl)-pentyl]-carbamic acid o-tolyl ester] | 100 to 1000
25 | Cc1nc(-c2ccccc2)c(-c2ccccc2)n1CCCCCNC(=O)Oc1ccccc1 [Example 31, [5-(2-Methyl-4,5-diphenyl-imidazol-1-yl)-pentyl]-carbamic acid phenyl ester] | 10 to 100
26 | Cc1nc(-c2ccccc2)c(-c2ccccc2)n1CCCCCCCNC(=O)Oc1ccc(F)cc1 [Example 21, [7-(2-Methyl-4,5-diphenyl-imidazol-1-yl)-heptyl]-carbamic acid 4-fluoro-phenyl ester] | 10 to 100
27 | COc1cccc(OC)c1OC(=O)NCCCCCCn1c(C)nc(-c2ccccc2)c1-c1ccccc1 [Example 16, [6-(2-Methyl-4,5-diphenyl-imidazol-1-yl)-hexyl]-carbamic acid 2,6-dimethoxy-phenyl ester] | 100 to 1000
28 | Cc1nc(-c2ccccc2)c(-c2ccccc2)n1CCCCCNC(=O)Oc1ccc(F)cc1 [Example 32, [5-(2-Methyl-4,5-diphenyl-imidazol-1-yl)-pentyl]-carbamic acid 4-fluoro-phenyl ester] | 10 to 100
29 | COc1ccc(OC(=O)NCCCCCCCn2c(C)nc(-c3ccccc3)c2-c2ccccc2)cc1 [Example 25, [7-(2-Methyl-4,5-diphenyl-imidazol-1-yl)-heptyl]-carbamic acid 4-methoxy-phenyl ester] | 10 to 100
30 | Cc1nc(-c2ccccc2)c(-c2ccccc2)n1CCCOc1ccc(NC(=O)Oc2ccc(F)c(F)c2)cc1 [Example 55, {4-[3-(2-Methyl-4,5-diphenyl-imidazol-1-yl)-propoxy]-phenyl}-carbamic acid 3,4-difluoro-phenyl ester] | 100 to 1000
